Assay results published in US20200207734A1, “HETEROCYCLIC COMPOUND AND USE THEREOF” (Takeda Pharmaceutical Company Limited, priority 2017, published 2020).

Target: T1, human orexin type 2 receptor (Homo sapiens, UniProt O43614)
T1 construct: human orexin type 2 receptor cDNA was inserted into pcDNA3.1(+) plasmid vector (Invitrogen); expressed in transfected cells
T1 sequence (O43614 1-444): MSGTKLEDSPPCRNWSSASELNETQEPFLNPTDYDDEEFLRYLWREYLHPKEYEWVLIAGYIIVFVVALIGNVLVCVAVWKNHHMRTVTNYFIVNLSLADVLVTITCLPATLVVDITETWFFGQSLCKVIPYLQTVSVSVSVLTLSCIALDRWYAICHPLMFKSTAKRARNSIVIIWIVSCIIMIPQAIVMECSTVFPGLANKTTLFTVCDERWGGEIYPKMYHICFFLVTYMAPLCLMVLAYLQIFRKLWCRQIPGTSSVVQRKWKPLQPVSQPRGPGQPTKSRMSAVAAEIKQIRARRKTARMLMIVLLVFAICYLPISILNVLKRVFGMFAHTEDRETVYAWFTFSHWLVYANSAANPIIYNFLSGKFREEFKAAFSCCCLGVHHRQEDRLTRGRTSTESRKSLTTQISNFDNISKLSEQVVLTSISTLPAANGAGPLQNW
Assay: Measurement of orexin type 2 receptor agonist activity (calcium fluorescence, CHO cells expressing hOX2R)
Format: cell-based
Details: test compound 3 μM; CHO cells expressing human OX2 receptor; DMSO = 0%, orexin A (human) = 100%
Method in brief: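 CHO-dhfr cells stably expressing hOX2R, loaded with Fluo-4 AM in HBSS/20 mM HEPES/0.1% BSA with probenecid, then given test compound. Calcium fluorescence was read for about 2 min 40 sec. Activity (%) was scaled between DMSO (0%) and 10 nM final human orexin A (100%).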

| Compound | OX2R agonist activity (3 μM, %) [%] |
| --- | --- |
| COCS(=O)(=O)N[C@H]1CCN(C(=O)C2CCC2)[C@H]1Cc1cccc(-c2ccccc2)c1 [Example 324, N-((2S,3S)-2-(biphenyl-3-ylmethyl)-1-(cyclobutylcarbonyl)pyrrolidin-3-yl)-1-methoxymethanesulfonamide] | 103 |
| CS(=O)(=O)N[C@H]1CCN(C(=O)C2CCO2)[C@H]1Cc1cccc(-c2cccc(F)c2)c1 (stereo partly drawn) [Example 328, N-((2S,3S)-2-((3′-fluorobiphenyl-3-yl)methyl)-1-(oxetan-2-ylcarbonyl)pyrrolidin-3-yl)methanesulfonamide] | 104 |
| CS(=O)(=O)N[C@H]1CCN(C(=O)C2(O)CCC2)[C@H]1Cc1csc(-c2cc(F)cc(F)c2)n1 [Example 339, N-((2S,3S)-2-((2-(3,5-difluorophenyl)-1,3-thiazol-4-yl)methyl)-1-((1-hydroxycyclobutyl)carbonyl)pyrrolidin-3-yl)methanesulfonamide] | 102 |
| CS(=O)(=O)N[C@H]1CCN(C(=O)N2CCC2)[C@H]1Cc1csc(-c2cc(F)cc(F)c2)n1 [Example 340, N-((2S,3S)-1-(azetidin-1-ylcarbonyl)-2-((2-(3,5-difluorophenyl)-1,3-thiazol-4-yl)methyl)pyrrolidin-3-yl)methanesulfonamide] | 103 |
| CS(=O)(=O)N[C@H]1CCN(C(=O)N2CC(F)C2)[C@H]1Cc1cccc(-c2cccc(F)c2)c1 [Example 341, N-((2S,3S)-1-((3-fluoroazetidin-1-yl)carbonyl)-2-((3′-fluorobiphenyl-3-yl)methyl)pyrrolidin-3-yl)methanesulfonamide] | 98 |
| CS(=O)(=O)N[C@H]1CCN(C(=O)N2CC(F)(F)C2)[C@H]1Cc1cccc(-c2cccc(F)c2)c1 [Example 342, N-((2S,3S)-1-((3,3-difluoroazetidin-1-yl)carbonyl)-2-((3′-fluorobiphenyl-3-yl)methyl)pyrrolidin-3-yl)methanesulfonamide] | 109 |
| CC1CCN1C(=O)N1CC[C@H](NS(C)(=O)=O)[C@@H]1Cc1cccc(-c2cccc(F)c2)c1 (stereo partly drawn) [Example 343, N-((2S,3S)-2-((3′-fluorobiphenyl-3-yl)methyl)-1-((2-methylazetidin-1-yl)carbonyl)pyrrolidin-3-yl)methanesulfonamide] | 107 |
| CS(=O)(=O)N[C@H]1CCN(C(=O)C2(O)CCC2)[C@H]1Cc1cccc(-c2cc(F)cc(F)c2)c1 [Example 344, N-((2S,3S)-2-((3′,5′-difluorobiphenyl-3-yl)methyl)-1-((1-hydroxycyclobutyl)carbonyl)pyrrolidin-3-yl)methanesulfonamide] | 99 |
| CS(=O)(=O)N[C@H]1CCN(C(=O)N2CCC2)[C@H]1Cc1cccc(-c2cc(F)cc(F)c2)c1 [Example 345, N-((2S,3S)-1-(azetidin-1-ylcarbonyl)-2-((3′,5′-difluorobiphenyl-3-yl)methyl)pyrrolidin-3-yl)methanesulfonamide] | 93 |
| CS(=O)(=O)N[C@H]1CCN(C(=O)C2(C#N)CCC2)[C@H]1Cc1cccc(-c2cccc(F)c2)c1 [Example 346, N-((2S,3S)-1-((1-cyanocyclobutyl)carbonyl)-2-((3′-fluorobiphenyl-3-yl)methyl)pyrrolidin-3-yl)methanesulfonamide] | 107 |
| CS(=O)(=O)N[C@H]1CCN(C(=O)N2CC3(CC3)C2)[C@H]1Cc1cccc(-c2cccc(F)c2)c1 [Example 347, N-((2S,3S)-1-(5-azaspiro[2.3]hex-5-ylcarbonyl)-2-((3′-fluorobiphenyl-3-yl)methyl)pyrrolidin-3-yl)methanesulfonamide] | 87 |
| CCS(=O)(=O)N[C@H]1CCN(C(=O)N2CCC2)[C@H]1Cc1csc(-c2cc(F)cc(F)c2)n1 [Example 348, N-((2S,3S)-1-(azetidin-1-ylcarbonyl)-2-((2-(3,5-difluorophenyl)-1,3-thiazol-4-yl)methyl)pyrrolidin-3-yl)ethanesulfonamide] | 109 |
| CC(C)(C)C(=O)N1CC[C@H](NS(C)(=O)=O)[C@@H]1Cc1cccc(-c2cccc(F)c2)c1F [Example 349, N-((2S,3S)-2-((2,3′-difluorobiphenyl-3-yl)methyl)-1-(2,2-dimethylpropanoyl)pyrrolidin-3-yl)methanesulfonamide] | 99 |
| CS(=O)(=O)N[C@H]1CCN(C(=O)C2CCC2)[C@H]1Cc1cccc(-c2cccc(F)c2)c1F [Example 350, N-((2S,3S)-1-(cyclobutylcarbonyl)-2-((2,3′-difluorobiphenyl-3-yl)methyl)pyrrolidin-3-yl)methanesulfonamide] | 99 |
| CC1(C(=O)N2CC[C@H](NS(C)(=O)=O)[C@@H]2Cc2cccc(-c3cccc(F)c3)c2F)CC1 [Example 351, N-((2S,3S)-2-((2,3′-difluorobiphenyl-3-yl)methyl)-1-((1-methylcyclopropyl)carbonyl)pyrrolidin-3-yl)methanesulfonamide] | 106 |
| CS(=O)(=O)N[C@H]1CCN(C(=O)N2CCC2)[C@H]1Cc1cccc(-c2cccc(F)c2)c1F [Example 352, N-((2S,3S)-1-(azetidin-1-ylcarbonyl)-2-((2,3′-difluorobiphenyl-3-yl)methyl)pyrrolidin-3-yl)methanesulfonamide] | 102 |
| CN(C)C(=O)N1CC[C@H](NS(C)(=O)=O)[C@@H]1Cc1cccc(-c2cc(F)cc(F)c2)c1 [Example 366, (2S,3S)-2-((3′,5′-difluorobiphenyl-3-yl)methyl)-N,N-dimethyl-3-((methylsulfonyl)amino)pyrrolidine-1-carboxamide] | 100 |
| CCS(=O)(=O)N[C@H]1CCN(C(=O)N(C)C)[C@H]1Cc1cccc(-c2cccc(F)c2)c1F [Example 373, (2S,3S)-2-((2,3′-difluorobiphenyl-3-yl)methyl)-3-((ethylsulfonyl)amino)-N,N-dimethylpyrrolidine-1-carboxamide] | 96 |
| CC(C)(O)C(=O)N1CC[C@H](NS(C)(=O)=O)[C@@H]1Cc1cccc(-c2cccc(F)c2)c1F [Example 387, N-((2S,3S)-2-((2,3′-difluorobiphenyl-3-yl)methyl)-1-(2-hydroxy-2-methylpropanoyl)pyrrolidin-3-yl)methanesulfonamide] | 106 |
| CCS(=O)(=O)N[C@H]1CCN(C(=O)C(C)(C)O)[C@H]1Cc1cccc(-c2cccc(F)c2)c1F [Example 389, N-((2S,3S)-2-((2,3′-difluorobiphenyl-3-yl)methyl)-1-(2-hydroxy-2-methylpropanoyl)pyrrolidin-3-yl)ethanesulfonamide] | 102 |
| CC(C)(O)C(=O)N1CC[C@H](NS(C)(=O)=O)[C@@H]1Cc1cccc(-c2cc(F)cc(F)c2)c1F [Example 395, N-((2S,3S)-1-(2-hydroxy-2-methylpropanoyl)-2-((2,3′,5′-trifluorobiphenyl-3-yl)methyl)pyrrolidin-3-yl)methanesulfonamide] | 104 |
| CCS(=O)(=O)N[C@H]1CCN(C(=O)N(C)C)[C@H]1Cc1cccc(-c2cc(F)cc(F)c2)c1F [Example 399, (2S,3S)-3-((ethylsulfonyl)amino)-N,N-dimethyl-2-((2,3′,5′-trifluorobiphenyl-3-yl)methyl)pyrrolidine-1-carboxamide] | 107 |
| CC(C)C(=O)N1CC[C@H](NS(C)(=O)=O)[C@@H]1Cc1cccc(-c2cc(F)cc(F)c2)c1F [Example 402, N-((2S,3S)-1-isobutyryl-2-((2,3′,5′-trifluorobiphenyl-3-yl)methyl)pyrrolidin-3-yl)methanesulfonamide] | 107 |
| CCS(=O)(=O)N[C@H]1CCN(C(=O)C(C)(C)O)[C@H]1Cc1cccc(-c2cc(F)cc(F)c2)c1 [Example 404, N-((2S,3S)-2-((3′,5′-difluorobiphenyl-3-yl)methyl)-1-(2-hydroxy-2-methylpropanoyl)pyrrolidin-3-yl)ethanesulfonamide] | 100 |
| CC(C)(O)C(=O)N1CC[C@H](NS(=O)(=O)CF)[C@@H]1Cc1cccc(-c2cccc(F)c2)c1F [Example 417, N-((2S,3S)-2-((2,3′-difluorobiphenyl-3-yl)methyl)-1-(2-hydroxy-2-methylpropanoyl)pyrrolidin-3-yl)-1-fluoromethanesulfonamide] | 110 |
| CC(C)(O)C(=O)N1CC[C@H](NS(=O)(=O)CF)[C@@H]1Cc1cccc(-c2cc(F)cc(F)c2)c1 [Example 421, N-((2S,3S)-2-((3′,5′-difluorobiphenyl-3-yl)methyl)-1-(2-hydroxy-2-methylpropanoyl)pyrrolidin-3-yl)-1-fluoromethanesulfonamide] | 106 |
